Experiments:
[1] = Time-dependent solubility in 0.1 N aqueous HCl solution; details: for Concentration: 0.1 N HCl, (25 ± 1) °C, hydrochloride
Description: The time dependent solubilities of idalopirdine hydrochloride form III and form V in 0.1 N HCl have been determined. Thereby, saturated solutions of both forms have been stirred at controlled temperature of (25 ± 1) °C and known aliquots have been taken after 5, 30 and 60 minutes. After filtering the solids, the idalopiridine concentrations of the remaining mother liquors were determined by HPLC using the same method as provided in Example 3 herein. The absolute solubility values were calculated from a calibration curve generated with solutions of known idalopirdine concentrations. […] Table 4: Time dependent solubility of idalopirdine hydrochloride form III and form V in 0.1 N HCl at (25 ± 1) °C

[2] = Gravimetric moisture sorption (GMS); assay type: physicochemical
Description: Moisture sorption and desorption curves were recorded with an SPSx-1µ moisture sorption analyzer (ProUmid, Ulm). The measurement cycle was started at ambient RH of 45%. RH was then decreased to 5% in 5% steps, followed by a further decrease to 3% and to 0%. […] Finally, RH was increased to 40% in 5% steps.
The time per step was set to a minimum of 2 hours and a maximum of 6 hours. If an equilibrium condition with a constant mass of ± 0.01 % within 1 hour was reached before the maximum time for all examined samples the sequential humidity step was applied before the maximum time of 6 hours. If no equilibrium was achieved the consecutive humidity step was applied after the maximum time of 6 hours. The temperature was 25 ± 0.1 °C.

[3] = Accelerated stress test at 40 °C/75% RH (HPLC impurities and PXRD); assay type: physicochemical; details: 1 month at 40 °C/ 75% RH, open dish
Description: Idalopirdine hydrochloride form V was subjected to accelerated stress conditions of 40 °C and 75% RH in an open dish for one month.

[4] = Differential scanning calorimetry (thermal stability); assay type: physicochemical; details: DSC, heating rate 10 K/min
Description: Differential scanning calorimetry (DSC) was performed on a Mettler Polymer DSC R instrument. The sample (4.36 mg) was heated in a 40 microL aluminium pan with pierced aluminium lid from room temperature to 250 °C at a rate of 10 K/min. Nitrogen (purge rate 50 mL/min) was used as purge gas.

[5] = listed as Idalopirdine hydrochloride form V of the present invention

`Cl.Fc1ccc2c(CCNCc3cccc(OCC(F)(F)C(F)F)c3)c[nH]c2c1` [Form III, N-[2-(6-fluoro-1H-indol-3-yl)ethyl]-3-(2,2,3,3-tetrafluoropropoxy)benzylamine hydrochloride, reference compound] showed a Concentration ([1]; 5 min) of 500 µg/mL, a Concentration ([1]; 30 min) of 600 µg/mL and a Concentration ([1]; 60 min) of 800 µg/mL.
For `Cl.Fc1ccc2c(CCNCc3cccc(OCC(F)(F)C(F)F)c3)c[nH]c2c1` [Form V, N-[2-(6-fluoro-1H-indol-3-yl)ethyl]-3-(2,2,3,3-tetrafluoropropoxy)benzylamine hydrochloride], the “PXRDs before and after the GMS experiment” value ([2]; 0 to 95% RH, 25 ± 0.1 °C) was “identical”, the “mass increase in the sorption cycle” value ([2]; sorption cycle from 0 to 95% RH, 25 °C) was 0.5 w-% and the “PXRD before and after” value ([3]; listed as Idalopirdine hydrochloride form V) was “No change”. For the same molecule, the “Increase of total impurities (HPLC at 225nm)” value [3, 5] was “+0.7 area%”, the “PXRD before and after” value [3, 5] was “unchanged” and the “Increase of total impurities (HPLC at 225nm)” value ([3]; hydrochloride) was “about 0.7 area%”. The “higher concentration in 0.1 N HCl” value [1] was “up to 50%”, the “Concentration, difference to Form III” value ([1]; 5 min) was “+40%” and the Concentration ([1]; 5 min) was 700 µg/mL. The “Concentration, difference to Form III” value ([1]; 30 min) was “+50%”, the Concentration ([1]; 30 min) was 900 µg/mL and the “Concentration, difference to Form III” value ([1]; 60 min) was “+12.5%”. The Concentration ([1]; 60 min) was 900 µg/mL and the “thermally stable up to a temperature” value [4] was “at least 120 °C”.

From patent EP3333154A1, “CRYSTALLINE FORM OF A SELECTIVE 5-HT6 RECEPTOR ANTAGONIST” (SANDOZ AG, priority 2016, dated 2018)
